The subject of test [1] is Corynebacterium Ax 7. Kind of test: Bacteriostatic activity (MIC), microtiter broth turbidity. It counts as cell-based, Corynebacterium group G. As to conditions: AX7; Corynebacterium Ax 7; growth inhibited by at least 80%, 24 h at 36° C.; read-out: MIC (minimal inhibitory concentration). From the text:
(§1) The bacteriostatic effects of the compounds of the present invention are compared with those of known anti-bacterial agents against human skin bacteria. Typical bacteria (Corynebacterium and Staphylococcus strains) isolated from the human axilla and commercially available strains are used.
(§2) The different axilla bacteria are isolated from the human axilla according to techniques known in the art, in particular according to standard microbiological practice. They are taxonomically identified by cell morphology, gram-reaction and biochemical tests included in the Api coryne test kit (BioMerieux, France). Strain Staphylococcus epidermidis Ax25 is identified by fatty acid methyl ester analysis (FAME; German type strain collection DSMZ, Germany) . […] The strains are maintained on Tryptic soy broth plates, this standard medium being supplemented with 5 g per Litre of Polyoxyethylene Sorbitan Monooleate (Tween™ 80). Plates are incubated at 36° C. for a period of 48 hours. The bacteria are then swabbed from the plates and suspended in 4 ml of Muller-Hinton broth supplemented with 100 mg of Tween™ 80 per Litre (MH-Tween) and incubated again at 36° C. for 16 hours. Following incubation the bacterial suspensions are diluted in MH-Tween to obtain a final cell density of 10^7 colony forming units per ml. These diluted suspensions of the different test organisms are distributed to different columns of a microtiter plate, 100 μl per well. The test compounds are dissolved in dimethylsulfoxide (DMSO) at various test concentrations and 2.5 μl of these different DMSO solutions are added to the different wells of the test plates. The plates are covered with plastic films and incubated for 24 h at 36° C. with shaking at 250 rpm. The turbidity developing in the microtiter platesi then examined after 24 h to determine microbial growth.

Test [2] relates to Corynebacterium Ax 15. The description is as above. The test is classed as cell-based, Corynebacterium jeikeium. As to conditions: AX15; Corynebacterium Ax 15; growth inhibited by at least 80%, 24 h at 36° C.; read-out: MIC (minimal inhibitory concentration).
Excerpt: as §1, §2

Test [3] relates to C. xerosis DSM 20170. Kind of test: Bactericidal activity (MBC), 60 min contact. It counts as cell-based. As to conditions: Corynebacterium xerosis, DSM20170, 1 h, inoculum completely killed after 60 min incubation, read-out: MBC (minimal bactericidal concentration). From the text:
(§3) The different axilla bacteria are isolated from the human axilla according to techniques known in the art, in particular according to standard microbiological practice. They are taxonomically identified by cell morphology, gram-reaction and biochemical tests included in the Api coryne test kit (BioMerieux, France). Strain Staphylococcus epidermidis Ax25 is identified by fatty acid methyl ester analysis (FAME; German type strain collection DSMZ, Germany) . Escherichia coli DSM 682, Staphylococcus aureus DSM 799, and Corynebacterium xerosis DSM 20170 are obtained from the German-type strain collection. The strains are maintained on Tryptic soy broth plates, this standard medium being supplemented with 5 g per Litre of Polyoxyethylene Sorbitan Monooleate (TweenTM 80). Plates are incubated at 36° C. for a period of 48 hours. The bacteria are then swabbed from the plates and suspended in 4 ml of Muller-Hinton broth supplemented with 100 mg of TweenTM 80 per Litre (MH-Tween) and incubated again at 36° C. for 16 hours. Following incubation the bacterial suspensions are diluted in MH-Tween to obtain a final cell density of 10^7 colony forming units per ml. These diluted suspensions of the different test organisms are distributed to different columns of a microtiter plate, 100 μl per well. The test compounds are dissolved in dimethylsulfoxide (DMSO) at various test concentrations and 2.5 μl of these different DMSO solutions are added to the different wells of the test plates. The plates are covered with plastic films and incubated for 24 h at 36° C. with shaking at 250 rpm. The turbidity developing in the microtiter […] examined after 24 h to determine microbial growth. […] The bacteria are grown, harvested and diluted under the same conditions as described in the example above and added to microtiter plates (100 μl per well), each well containing 2.5 μl of the different DMSO solutions as described above. After 60 min incubation, 0.5 μl of the bacterial culture from each well (corresponding to 5×10^3 cfu in the control treatment) is transferred to a fresh microtiter plate which contained 100 μl per well of fresh medium. The plates are covered with plastic films and incubated for 24 h at 36° C. with shaking at 250 rpm. The turbidity developing in the microtiter plates is then examined after 24 h to determine microbial growth. The minimal concentration of test compounds which completely killed the bacterial inoculum is determined as the minimal bactericidal concentration (MBC).

In test [4] the test system is S. epidermidis Ax 25. The test can be described thus: Bactericidal activity (MBC), 60 min contact. It counts as cell-based. As to conditions: Staphylococcus epidermidis, AX25, 1 h, inoculum completely killed after 60 min incubation, read-out: MBC (minimal bactericidal concentration).
Excerpt: as §3

Test [5] relates to Corynebacterium Ax 7. Kind of test: Bactericidal activity (MBC), 60 min contact. The test is classed as cell-based, Corynebacterium group G. As to conditions: AX7, 1 h, inoculum completely killed after 60 min incubation, read-out: MBC (minimal bactericidal concentration).
Excerpt: as §3

Test [6] concerns Corynebacterium Ax 15. Kind of test: Bactericidal activity (MBC), 60 min contact. As to conditions: AX15, 1 h, inoculum completely killed after 60 min incubation, read-out: MBC (minimal bactericidal concentration). It counts as cell-based, Corynebacterium jeikeium.
Excerpt: as §3

The subject of test [7] is C. xerosis DSM 20170. Kind of test: Bacteriostatic activity (MIC), microtiter broth turbidity. The test is classed as cell-based. To be noted: Corynebacterium xerosis, DSM20170; C. xerosis DSM 20170; growth inhibited by at least 80%, 24 h at 36° C.; read-out: MIC (minimal inhibitory concentration).
Excerpt: as §1, §2

Test [8] has as its system S. epidermidis Ax 25. The description is as above. The test is classed as cell-based. To be noted: Staphylococcus epidermidis, AX25; S. epidermidis Ax 25; growth inhibited by at least 80%, 24 h at 36° C.; read-out: MIC (minimal inhibitory concentration).
Excerpt: as §1, §2

A further test has as its system Escherichia coli DSM 682. The test is described as above. The test is classed as cell-based. To be noted: DSM682; Escherichia coli DSM 682; growth inhibited by at least 80%, 24 h at 36° C.; read-out: MIC (minimal inhibitory concentration).
Excerpt: as §1, §2

Test [9] has as its system Staphylococcus aureus DSM 799. Described as above. To be noted: DSM799; Staphylococcus aureus DSM 799; growth inhibited by at least 80%, 24 h at 36° C.; read-out: MIC (minimal inhibitory concentration). The test is classed as cell-based.
Excerpt: as §1, §2

Molecules are shown by their SMILES. Values after ≈ are worked out from the molar mass of the structure shown.

`CCCCCCC(CCCC)C(=O)OCC(=O)O` (stereo not shown) [compound 8, 2-Butyl-octanoic acid carboxymethyl ester]: the MIC was 160 mg/L (≈ 0.619 mM) with Corynebacterium Ax 7 [1]; 80 mg/L (≈ 0.31 mM) with Corynebacterium Ax 15 [2]; 80 mg/L (≈ 0.31 mM) with C. xerosis DSM 20170 [7]; 1250 mg/L (≈ 4.84 mM) in the test on S. epidermidis Ax 25 [8]; 2500 mg/L (≈ 9.68 mM) in the test on Escherichia coli DSM 682; 80 mg/L (≈ 0.31 mM) in test [9]. For the same molecule, the MBC with C. xerosis DSM 20170 [3] was 2500 mg/L (≈ 9.68 mM); in the test on S. epidermidis Ax 25 [4], 1250 mg/L (≈ 4.84 mM); with Corynebacterium Ax 7 [5], 1250 mg/L (≈ 4.84 mM); in the test with Corynebacterium Ax 15 [6], 2500 mg/L (≈ 9.68 mM).

These data come from patent US20070276045A1, “Anti-Bacterial Compounds” (priority 2004, published 2007).
